In PubChem BioAssay (NCI):
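Method: 48-hour compound exposure of cells in 96-well plates, five concentrations, linear interpolation of endpoints. GI50 marks 50% less growth. At the TGI there is no net growth.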

Legend:
Experiment in all cases: NCI-60 cell line screen, 48 h
SK-MEL-28 melanoma = test system: SK-MEL-28 melanoma
RPMI-8226 leukemia = test system: RPMI-8226 leukemia
EKVX NSCLC = test system: EKVX NSCLC
BT-549 breast = test system: BT-549 breast
TK-10 renal = test system: TK-10 renal
UO-31 renal = test system: UO-31 renal
A549 NSCLC = test system: A549 NSCLC
NCI-H522 lung = test system: NCI-H522 lung
HOP-62 NSCLC = test system: HOP-62 NSCLC
UACC-62 melanoma = test system: UACC-62 melanoma

## COC1C(CO)OC(n2c3ccccc3c3c4c(c5c6ccccc6[nH]c5c32)C(=O)NC4=O)C(O)C1O (centres undefined)
SK-MEL-28 melanoma
  GI50: 156 nM
  TGI: 8490 nM
RPMI-8226 leukemia
  GI50: 2220 nM
  TGI: 25200 nM
EKVX NSCLC
  GI50: 326 nM
  TGI: 2340 nM
BT-549 breast
  GI50: 120 nM
  TGI: 1850 nM
TK-10 renal
  GI50: 143 nM
  TGI: 548 nM
UO-31 renal
  GI50: 173 nM
  TGI: 676 nM
A549 NSCLC
  GI50: 621 nM
NCI-H522 lung
  GI50: < 10 nM
  TGI: 153 nM
HOP-62 NSCLC
  GI50: 51.4 nM
  TGI: 1200 nM
UACC-62 melanoma
  GI50: 16.9 nM
  TGI: 90.2 nM

## CSC1=Nc2c(c(C)c(-c3ccccc3)n2CCCN2CCCCC2)C2=NC(=O)C[C@H](C)N12
SK-MEL-28 melanoma
  GI50: 3320 nM
  TGI: 14900 nM
RPMI-8226 leukemia
  GI50: 505 nM
  TGI: 2250 nM
EKVX NSCLC
  GI50: 3060 nM
  TGI: > 44700 nM
BT-549 breast
  GI50: 2830 nM
  TGI: 13700 nM
TK-10 renal
  GI50: 3980 nM
  TGI: > 30600 nM
UO-31 renal
  GI50: 6350 nM
  TGI: 26000 nM
A549 NSCLC
  GI50: 3570 nM
  TGI: > 32600 nM
NCI-H522 lung
  GI50: 2550 nM
  TGI: 9780 nM
HOP-62 NSCLC
  GI50: 3110 nM
  TGI: 15800 nM
UACC-62 melanoma
  GI50: 3170 nM
  TGI: 15400 nM

## CCCCCCCC/C=C/CCCCCCCC1=NC(C)(C)CN1CC(C)O (centres undefined)
SK-MEL-28 melanoma
  GI50: 1740 nM
  TGI: 3190 nM
RPMI-8226 leukemia
  GI50: 2280 nM
  TGI: 5910 nM
EKVX NSCLC
  GI50: 4840 nM
  TGI: 18200 nM
BT-549 breast
  GI50: 2840 nM
  TGI: 15700 nM
TK-10 renal
  GI50: 2730 nM
  TGI: 7490 nM
UO-31 renal
  GI50: 1630 nM
  TGI: 4190 nM
A549 NSCLC
  GI50: 1800 nM
  TGI: 3420 nM
NCI-H522 lung
  GI50: 1920 nM
  TGI: 4330 nM
HOP-62 NSCLC
  GI50: 1830 nM
  TGI: 3390 nM
UACC-62 melanoma
  GI50: 1660 nM
  TGI: 3130 nM

## COC(=O)/C(=N\NC(N)=O)C(C(=O)C(=O)Nc1ccccc1OC)c1nc2ccc([N+](=O)[O-])cc2[nH]c1=O (centres undefined)
SK-MEL-28 melanoma
  TGI: > 100000 nM
RPMI-8226 leukemia
  TGI: > 100000 nM
EKVX NSCLC
  TGI: > 100000 nM
BT-549 breast
  TGI: > 100000 nM
TK-10 renal
  TGI: > 100000 nM
UO-31 renal
  TGI: > 100000 nM
A549 NSCLC
  TGI: > 100000 nM
NCI-H522 lung
  TGI: > 100000 nM
HOP-62 NSCLC
  TGI: > 100000 nM
UACC-62 melanoma
  TGI: > 100000 nM

## CC[C@@H]1[C@@H](C)O[C@@](O)([C@@H](C)[C@H](O)[C@H](C)[C@H]2OC(=O)/C=C/C=C/[C@H](C)[C@@H]([C@@H](C)[C@@H](O)[C@H](C)[C@@]3(O)C[C@@H](O[C@H]4C[C@@H](O)[C@H](O)C(C)O4)[C@H](CC)[C@@H](C)O3)OC(=O)/C=C/C=C/[C@@H]2C)C[C@H]1O[C@@H]1C[C@@H](O)[C@H](O)C(C)O1 (some centres undefined)
SK-MEL-28 melanoma
  GI50: 88.5 nM
  TGI: 258 nM
RPMI-8226 leukemia
  GI50: 64.3 nM
  TGI: 153 nM
EKVX NSCLC
  GI50: 110 nM
  TGI: 468 nM
BT-549 breast
  GI50: 56.9 nM
  TGI: 124 nM
TK-10 renal
  GI50: 74.6 nM
  TGI: 212 nM
UO-31 renal
  GI50: 134 nM
  TGI: 583 nM
A549 NSCLC
  GI50: 112 nM
  TGI: 344 nM
NCI-H522 lung
  GI50: 88.5 nM
  TGI: 303 nM
HOP-62 NSCLC
  GI50: 73 nM
  TGI: 171 nM
UACC-62 melanoma
  GI50: 60.4 nM
  TGI: 152 nM
